Assay results as given in patent US9505709B2, “Compositions and methods relating to ionic salts of peptides” (Thetis Pharmaceuticals LLC, priority 2014, dated 2016).

How the values were obtained:
[1] = Oral pharmacokinetics (oral gavage), plasma free EPA or free DHA; type: in vivo, Sprague-Dawley rats; details: rat
Method: Experiments via Oral Gavage: Oral pharmacokinetic parameters of TP-212 (Lysyl-Lysine Bis-EPA), TP-312 (Lysyl-Lysine Bis-DHA), EPA-EE, EPA FFA and DHA FFA were determined in Sprague-Dawley rats. EPA-EE is 97% pure ethyl ester form of eicosapentaenoic acid. It is the principal polyunsaturated fatty acid in Vascepa, an Omega-3 compound approved in the U.S. for the treatment of severe hypertriglyceridemia. EPA FFA is 97% pure free fatty acid form of eicosapentaenoic acid and DHA FFA is 98% pure free fatty acid DHA. EPA FFA and DHA FFA are the two principal poly-unsaturated fatty acids in Epanova, an Omega-3 compound approved in the U.S. for the treatment of severe hypertriglyceridemia. The subject drugs were administered by oral gavage as an aqueous solution in de-ionized water to 6 Sprague-Dawley rats per group (3 males and 3 females). Rats were dosed at 40 mg/kg. Blood samples were obtained from each rat by jugular vein catheter. Samples were collected at pre-dose and at 0.25, 0.5, 1, 2, 4, 8, 12 and 18 hours post dose. Blood samples were centrifuged to separate red blood cells and the resulting plasma samples were analyzed for free EPA or free DHA. Free EPA or […] extracted from rat plasma with hexane at acidic condition without hydrolysis. Detection was by MS-MS monitoring of negative ion for EPA or DHA. Calculated pharmacokinetic values are mean values from 6 rats for each study drug.
(§1) For all figures and tables, the data are adjusted as follows for comparative purposes. First, the actual plasma levels are baseline adjusted. Thus, for each study arm, the pre-dose level (time=0) is subtracted from the actual plasma levels at each time point, with negative values adjusted to zero. Second, these baseline adjusted values are further adjusted to be molar dose equivalent on a comparative basis among the study arms with respect to EPA or DHA payload (i.e., as if equal amounts of free fatty acid EPA or DHA are administered in each study arm).

[2] = Intravenous injection pharmacokinetics, plasma free EPA or free DHA; type: in vivo, Sprague-Dawley rats; details: rat
Method: Experiments via Intravenous Injection: TP-212 and TP-312 were administered by intravenous injection (20 mg/kg) to Sprague-Dawley rats (n=6/group—3 male and 3 female), and plasma was obtained from serial blood samples taken from each animal at scheduled times ([…]). Blood samples were centrifuged to separate red blood cells and the resulting plasma samples were analyzed for free EPA or free DHA. Free EPA or free DHA was extracted from rat plasma with hexane at acidic condition without hydrolysis. Detection was by MS-MS monitoring of negative ion for EPA or DHA. Calculated pharmacokinetic values are mean values from 6 rats for each study drug.
as §1

Balb/C mice = experiment: Ocular irritation after topical dosing to the cornea (hyperemia, squinting, discharge, lid swelling); type: in vivo; details: for Hyperemia: 3 μL drop in each eye four times daily for 3 days
Method: In an embodiment where the ophthalmic formulation is an aqueous formulation, it has been determined in mice that certain formulations can be administered to the surface of the eye without producing irritation that would make them unsuitable for such application. Irritation parameters of TP-211-1, TP-212-1, TP-311-1 and TP-312-1 related to hyperemia, squinting, and discharge were determined in Balb/C mice. Mice were dosed topically to the cornea using a calibrated micropipette, with a 3 μL drop of treatment in each eye four times daily for 3 consecutive days at various concentrations.
TP-211-1 is Lysyl-lysine EPA. TP-212-1 is Lysyl-lysine bis-EPA. TP-311-1 is Lysyl-lysine DHA. TP-312-1 is Lysyl-lysine bis-DHA. The study drugs were prepared using phosphate buffered saline (PBS) to reach target concentrations ranging from 0.1% to 1.0%.
The animals were monitored for scratching at the eye or any other abnormal behavior post-dose. Ocular exams were conducted on Days 1 and 3 with use of a Micron III camera system to take high resolution videos of the right eye of each animal Clinical signs including but not limited to hyperemia, discharge, lid swelling, and squinting were evaluated by trained personnel who was masked as to group assignment. Each clinical sign was graded on a scale of 0-4, with the exception of lid swelling which was graded on a scale of 0-2. Scores were averaged and are expressed as the mean±SEM for each group. Statistical significance was assessed between the treatment arms and the vehicle group. Any significance is noted by asterisks (*=p<0.05, **=p<0.01, ***=p<0.001).

[3] = Stability analysis by 1H NMR of samples exposed to air and light; details: ambient temperature
Method: Stability analysis was performed using 1H NMR (400 MHz) with acetic acid-d4 at various time point (typically days 1, 14, 30 and 60) using samples exposed to air and light at ambient temperature (clear vials with no caps).

[4] = oral gavage 40 mg/kg, molar dose equivalent, baseline adjusted
[5] = intravenous injection 20 mg/kg, molar dose equivalent, baseline adjusted

CC/C=C\C/C=C\C/C=C\C/C=C\C/C=C\C/C=C\CCC(=O)O.CC/C=C\C/C=C\C/C=C\C/C=C\C/C=C\C/C=C\CCC(=O)O.NCCCC[C@H](NC(=O)[C@@H](N)CCCCN)C(=O)O [Compound 4, (L,L) Lysyl-lysine bis DHA]
Tmax (free DHA) ([1]; oral gavage 40 mg/kg): 2 h
Plasma level of free DHA ([1]; oral gavage 40 mg/kg, 0 h (pre-dose), molar dose equivalent, baseline adjusted): 0 ng/mL
Plasma level of free DHA ([1]; oral gavage 40 mg/kg, 0.25 h (15 min), molar dose equivalent, baseline adjusted): 0 ng/mL
Plasma level of free DHA ([1]; oral gavage 40 mg/kg, 0.5 h (30 min), molar dose equivalent, baseline adjusted): 4600 ng/mL
Plasma level of free DHA ([1]; oral gavage 40 mg/kg, 1 h (60 min), molar dose equivalent, baseline adjusted): 6300 ng/mL
Plasma level of free DHA ([1]; oral gavage 40 mg/kg, 2 h (120 min), molar dose equivalent, baseline adjusted): 10400 ng/mL
Plasma level of free DHA ([1]; oral gavage 40 mg/kg, 4 h (240 min), molar dose equivalent, baseline adjusted): 5600 ng/mL
Plasma level of free DHA ([1]; oral gavage 40 mg/kg, 8 h, molar dose equivalent, baseline adjusted): 1400 ng/mL
Plasma level of free DHA ([1]; oral gavage 40 mg/kg, 12 h, molar dose equivalent, baseline adjusted): 0 ng/mL
Plasma level of free DHA ([1]; oral gavage 40 mg/kg, 18 h, molar dose equivalent, baseline adjusted): 0 ng/mL
AUC 0-1 hrs (free DHA) [1, 4]: 3300 ng·h/mL
AUC 0-4 hrs (free DHA) [1, 4]: 27600 ng·h/mL
AUC 0-18 hrs (free DHA) [1, 4]: 44400 ng·h/mL
Cmax (free DHA) [1, 4]: 10400 ng/mL
AUC over 18 hours (free DHA), times greater than DHA-FFA ([1]; oral gavage): approximately 1.2 times
Cmax (free DHA), times greater than DHA-FFA ([1]; oral gavage): approximately 3.0 times
Tmax (free DHA) ([2]; intravenous injection 20 mg/kg): 1 min
Plasma level of free DHA ([2]; intravenous injection 20 mg/kg, 1 min, molar dose equivalent, baseline adjusted): 66400 ng/mL
Plasma level of free DHA ([2]; intravenous injection 20 mg/kg, 5 min, molar dose equivalent, baseline adjusted): 15100 ng/mL
Plasma level of free DHA ([2]; intravenous injection 20 mg/kg, 10 min, molar dose equivalent, baseline adjusted): 16600 ng/mL
Plasma level of free DHA ([2]; intravenous injection 20 mg/kg, 15 min, molar dose equivalent, baseline adjusted): 17500 ng/mL
Plasma level of free DHA ([2]; intravenous injection 20 mg/kg, 30 min, molar dose equivalent, baseline adjusted): 16400 ng/mL
Plasma level of free DHA ([2]; intravenous injection 20 mg/kg, 60 min, molar dose equivalent, baseline adjusted): 12900 ng/mL
Plasma level of free DHA ([2]; intravenous injection 20 mg/kg, 120 min, molar dose equivalent, baseline adjusted): 8500 ng/mL
Plasma level of free DHA ([2]; intravenous injection 20 mg/kg, 240 min, molar dose equivalent, baseline adjusted): 7800 ng/mL
Plasma level of free DHA ([2]; intravenous injection 20 mg/kg, first line (time printed as dash, pre-dose), molar dose equivalent, baseline adjusted): 0 ng/mL
AUC 0-1 hrs (free DHA) [2, 5]: 16300 ng·h/mL
AUC 0-4 hrs (free DHA) [2, 5]: 43300 ng·h/mL
Cmax (free DHA) [2, 5]: 66400 ng/mL
AUC over 1 hour (free DHA), times greater than DHApo ([2]; intravenous vs oral gavage): ~14.7 times
AUC over 1 hour (free DHA), times greater than TP-312po ([2]; intravenous vs oral gavage): approximately 4.9 times
AUC over 4 hours (free DHA), times greater than DHApo ([2]; intravenous vs oral gavage): ~5.0 times
AUC over 4 hours (free DHA), times greater than TP-312po ([2]; intravenous vs oral gavage): approximately 1.6 times
Cmax (free DHA), times greater than DHApo ([2]; intravenous vs oral gavage): ~19.3 times
Cmax (free DHA), times greater than TP-312po ([2]; intravenous vs oral gavage): approximately 6.4 times
Hyperemia (Balb/C mice; 0.1% concentration in PBS): did not cause any significant increase in hyperemia after the first dose
Hyperemia (Balb/C mice; 0.5% concentration in PBS): some initial hyperemia after the first dose
Hyperemia (Balb/C mice; 1.0% concentration in PBS): some initial hyperemia after the first dose
Squinting (Balb/C mice; all concentrations tested, topical to cornea): none of the concentrations caused squinting throughout the study
Hyperemia at last dose / final evaluation (Balb/C mice; concentrations that showed an initial increase or all tested, last dose / final evaluation (Day 3)): remained at baseline levels of hyperemia by the last dose of the day
Concentration at which not irritating / well tolerated (Balb/C mice; topical to cornea four times daily for 3 days): less than 1.0%
Stability by NMR (amount of sample remaining relative to original sample) ([3]; Day 3): 1 (1 = >95%)
Stability by NMR (amount of sample remaining relative to original sample) ([3]; Day 14): 1 (1 = >95%)
Stability by NMR (amount of sample remaining relative to original sample) ([3]; Day 30): 1 (1 = >95%)
Stability by NMR (amount of sample remaining relative to original sample) ([3]; Day 60): 1 (1 = >95%)
